Source: US4129737A, “Process for the preparation of an 8-alkyl-5-oxo-5,8-dihydro-pyrido(2,3-d)pyrimidine-6-carboxylic acid” (priority 1972, dated 1978)
In brackets after ≈: the same amount, converted by molar mass.

Columns and labels:
Test in all cases: Average MIC, solid medium (nutrient agar) dilution method
Esch 111 B4 = type: cell-based; conditions: 18 h, average of five determinations, read-out: minimum inhibitory concentration, average
Salm. typhi 0901 = type: cell-based; conditions: Salmonella enterica, 18 h, read-out: minimum inhibitory concentration, average
Sh. sonnei I.P.S. = type: cell-based; conditions: Shigella sonnei, 18 h, average of five determinations, read-out: minimum inhibitory concentration, average
Staphylococcus 209P = conditions: 18 h, read-out: minimum inhibitory concentration, average
Staphylococcus 9144 = conditions: Staphylococcus, 9144, 18 h, read-out: minimum inhibitory concentration, average
Staphylococcus SIM = conditions: 18 h, read-out: minimum inhibitory concentration, average
Streptococcus A561 = conditions: A561, 18 h, read-out: minimum inhibitory concentration, average
Streptococcus DM19 = conditions: DM19, 18 h, read-out: minimum inhibitory concentration, average
B. subtilis 6633 = conditions: Bacillus subtilis, 6633, 18 h, read-out: minimum inhibitory concentration, average
Bord. bronch. 4617 = conditions: 18 h, read-out: minimum inhibitory concentration, average
Ps. aeruginosa A22 = conditions: Pseudomonas aeruginosa, A22, 18 h, read-out: minimum inhibitory concentration, average
Ps. aeruginosa 72-345 = conditions: Pseudomonas aeruginosa, 72345, 18 h, read-out: minimum inhibitory concentration, average
Esch. coli. 95 I.S.M. = conditions: Escherichia coli, 18 h, read-out: minimum inhibitory concentration, average
Esch. coli. 54-127 OMS = conditions: Escherichia coli, 18 h, read-out: minimum inhibitory concentration, average
Esch. coli. LRB 45 = conditions: Escherichia coli, 18 h, read-out: minimum inhibitory concentration, average
Esch. coli. LRB 67 = conditions: Escherichia coli, 18 h, read-out: minimum inhibitory concentration, average
Esch. coli. Cho = conditions: Escherichia coli, 18 h, read-out: minimum inhibitory concentration, average
Klebs. pneumoniae 10.031 = conditions: Klebsiella pneumoniae, 10.031, 18 h, read-out: minimum inhibitory concentration, average
S. enteritidis DANYZ = conditions: Salmonella enterica, 18 h, read-out: minimum inhibitory concentration, average
S. oranienburg 10-66 = conditions: Salmonella enterica, 1066, 18 h, read-out: minimum inhibitory concentration, average
Arizona 6211 = conditions: 18 h, read-out: minimum inhibitory concentration, average
Providencia 0223 = conditions: Providencia, 0223, 18 h, read-out: minimum inhibitory concentration, average
Pr. vulgaris 12-53 = conditions: Proteus vulgaris, 1253, 18 h, read-out: minimum inhibitory concentration, average
Pr. mirabilis Nig = conditions: Proteus mirabilis, 18 h, read-out: minimum inhibitory concentration, average
Pr. morganii A 236 = conditions: Morganella morganii, A236, 18 h, read-out: minimum inhibitory concentration, average

Row | Compound | MIC (Esch 111 B4) | MIC (Salm. typhi 0901) | MIC (Sh. sonnei I.P.S.) | MIC (Staphylococcus 209P) | MIC (Staphylococcus 9144) | MIC (Staphylococcus SIM) | MIC (Streptococcus A561) | MIC (Streptococcus DM19) | MIC (B. subtilis 6633) | MIC (Bord. bronch. 4617) | MIC (Ps. aeruginosa A22) | MIC (Ps. aeruginosa 72-345) | MIC (Esch. coli. 95 I.S.M.) | MIC (Esch. coli. 54-127 OMS) | MIC (Esch. coli. LRB 45) | MIC (Esch. coli. LRB 67) | MIC (Esch. coli. Cho) | MIC (Klebs. pneumoniae 10.031) | MIC (S. enteritidis DANYZ) | MIC (S. oranienburg 10-66) | further results
1 | CCn1cc(C(=O)O)c(=O)c2ccc(C)nc21 [Nalidixic acid, nalidixic acid, reference compound] | 2.34 µg/mL (≈ 10.1 µM) | 2.7 µg/mL (≈ 11.6 µM) | 1.58 µg/mL (≈ 6.8 µM) | 16.2 µg/mL (≈ 69.9 µM) | 25 µg/mL (≈ 108 µM) | 56.2 µg/mL (≈ 242 µM) | 18.7 µg/mL (≈ 80.7 µM) | 100 µg/mL (≈ 431 µM) | 72 µg/mL (≈ 310 µM) | 25 µg/mL (≈ 108 µM) | 60 µg/mL (≈ 258 µM) | 60 µg/mL (≈ 258 µM) | 21.9 µg/mL (≈ 94.2 µM) | 2.15 µg/mL (≈ 9.26 µM) | 3.1 µg/mL (≈ 13.3 µM) | 2.7 µg/mL (≈ 11.6 µM) | 4.04 µg/mL (≈ 17.4 µM) | 1.4 µg/mL (≈ 6.03 µM) | 2.75 µg/mL (≈ 11.8 µM) | 100 µg/mL (≈ 431 µM) | MIC (Arizona 6211): 3.12 µg/mL (≈ 13.4 µM); MIC (Providencia 0223): 100 µg/mL (≈ 431 µM); MIC (Pr. vulgaris 12-53): 0.88 µg/mL (≈ 3.79 µM); MIC (Pr. mirabilis Nig): 3.42 µg/mL (≈ 14.7 µM); MIC (Pr. morganii A 236): 0.36 µg/mL (≈ 1.55 µM)
2 | CCn1cc(C(=O)O)c(=O)c2cnc(N3CCCC3)nc21 [Example III, 2-Pyrrolidino-5-oxo-8-ethyl-5,8-dihydro-pyrido(2,3-d)-pyrimidine-6-carboxylic acid] | 15.6 µg/mL (≈ 54.2 µM) | 23.7 µg/mL (≈ 82.3 µM) | 10.6 µg/mL (≈ 36.8 µM) | 3.42 µg/mL (≈ 11.9 µM) | 4.04 µg/mL (≈ 14 µM) | 15 µg/mL (≈ 52 µM) | 2.82 µg/mL (≈ 9.78 µM) | 100 µg/mL (≈ 347 µM) | 1 µg/mL (≈ 3.47 µM) | 80 µg/mL (≈ 277 µM) | 100 µg/mL (≈ 347 µM) | 75 µg/mL (≈ 260 µM) | 32.5 µg/mL (≈ 113 µM) | 15.6 µg/mL (≈ 54.2 µM) | 15.6 µg/mL (≈ 54.2 µM) | 12.5 µg/mL (≈ 43.4 µM) | 32.5 µg/mL (≈ 113 µM) | 1.2 µg/mL (≈ 4.16 µM) | 21.9 µg/mL (≈ 76 µM) | 100 µg/mL (≈ 347 µM) | MIC (Arizona 6211): 27.5 µg/mL (≈ 95.4 µM); MIC (Providencia 0223): 100 µg/mL (≈ 347 µM); MIC (Pr. vulgaris 12-53): 5.6 µg/mL (≈ 19.4 µM); MIC (Pr. mirabilis Nig): 30 µg/mL (≈ 104 µM); MIC (Pr. morganii A 236): 0.56 µg/mL (≈ 1.94 µM)
